Laboratory results published in PubChem BioAssay (NCI).
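Five concentrations, 48 hours, 96-well plates.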 Calls of active or inactive are those of the source. No stated cut-off is given here; in the data, active means GI50 below about 0.43 µM; inactive means the rest.

Assays:
Assay in all cases: growth of human tumour cells (NCI), 48 h
786-0 renal = tested on: 786-0 renal
A549 NSCLC = tested on: A549 NSCLC
ACHN renal = tested on: ACHN renal
CAKI-1 renal = tested on: CAKI-1 renal
CCRF-CEM leukemia = tested on: CCRF-CEM leukemia
COLO 205 colon = tested on: COLO 205 colon
DLD-1 colon = tested on: DLD-1 colon
DMS 114 small cell lung = tested on: DMS 114 small cell lung
DMS 273 small cell lung = tested on: DMS 273 small cell lung
EKVX NSCLC = tested on: EKVX NSCLC
HCC-2998 colon = tested on: HCC-2998 colon
HCT-15 colon = tested on: HCT-15 colon
HL-60(TB) leukemia = tested on: HL-60(TB) leukemia
HOP-62 NSCLC = tested on: HOP-62 NSCLC
HOP-92 NSCLC = tested on: HOP-92 NSCLC
HT29 colon = tested on: HT29 colon
IGROV1 ovarian = tested on: IGROV1 ovarian
K-562 leukemia = tested on: K-562 leukemia
KM12 colon = tested on: KM12 colon
KM20L2 colon = tested on: KM20L2 colon
LOX IMVI melanoma = tested on: LOX IMVI melanoma
LXFL 529 NSCLC = tested on: LXFL 529 NSCLC
M14 melanoma = tested on: M14 melanoma
M19-MEL melanoma = tested on: M19-MEL melanoma
MALME-3M melanoma = tested on: MALME-3M melanoma
MOLT-4 leukemia = tested on: MOLT-4 leukemia
NCI-H226 lung = tested on: NCI-H226 lung
NCI-H23 lung = tested on: NCI-H23 lung
NCI-H460 lung = tested on: NCI-H460 lung
NCI-H522 lung = tested on: NCI-H522 lung
OVCAR-3 ovarian = tested on: OVCAR-3 ovarian
OVCAR-4 ovarian = tested on: OVCAR-4 ovarian
OVCAR-5 ovarian = tested on: OVCAR-5 ovarian
OVCAR-8 ovarian = tested on: OVCAR-8 ovarian
RPMI-8226 leukemia = tested on: RPMI-8226 leukemia
RXF 393 renal = tested on: RXF 393 renal
SF-268 CNS = tested on: SF-268 CNS
SF-295 CNS = tested on: SF-295 CNS
SF-539 CNS = tested on: SF-539 CNS
SK-MEL-2 melanoma = tested on: SK-MEL-2 melanoma
SK-OV-3 ovarian = tested on: SK-OV-3 ovarian
SN12C renal = tested on: SN12C renal
SNB-19 CNS = tested on: SNB-19 CNS
SNB-75 CNS = tested on: SNB-75 CNS
SNB-78 CNS = tested on: SNB-78 CNS
SR leukemia = tested on: SR leukemia
SW-620 colon = tested on: SW-620 colon
U251 CNS = tested on: U251 CNS
UACC-257 melanoma = tested on: UACC-257 melanoma
UACC-62 melanoma = tested on: UACC-62 melanoma
UO-31 renal = tested on: UO-31 renal
XF 498 CNS = tested on: XF 498 CNS

Measured: outcome

C=C1C(=O)O[C@@H]2C1C(OC(C)CCC)[C@@H](O)[C@@H](C)C(O)C1O[C@]1(C)[C@H]2O (some centres not stated)
inactive: 786-0 renal | A549 NSCLC | ACHN renal | CAKI-1 renal | CCRF-CEM leukemia | COLO 205 colon | DLD-1 colon | DMS 114 small cell lung | DMS 273 small cell lung | EKVX NSCLC | HCC-2998 colon | HCT-15 colon | HL-60(TB) leukemia | HOP-62 NSCLC | HOP-92 NSCLC | HT29 colon | IGROV1 ovarian | K-562 leukemia | KM12 colon | KM20L2 colon | LOX IMVI melanoma | LXFL 529 NSCLC | M14 melanoma | M19-MEL melanoma | MALME-3M melanoma | MOLT-4 leukemia | NCI-H226 lung | NCI-H23 lung | NCI-H460 lung | NCI-H522 lung | OVCAR-3 ovarian | OVCAR-4 ovarian | OVCAR-5 ovarian | OVCAR-8 ovarian | RPMI-8226 leukemia | RXF 393 renal | SF-268 CNS | SF-295 CNS | SF-539 CNS | SK-MEL-2 melanoma | SK-OV-3 ovarian | SN12C renal | SNB-19 CNS | SNB-75 CNS | SNB-78 CNS | SR leukemia | SW-620 colon | U251 CNS | UACC-257 melanoma | UACC-62 melanoma | UO-31 renal | XF 498 CNS
